The results in this text go back to publication PMC5826917, “A small molecule inhibitor of Nicotinamide N-methyltransferase for the treatment of metabolic disorders” (Scientific Reports, 2018).

Structures are written as SMILES.

One data set relates to ob/ob mice. In words: Chronic efficacy study in ob/ob mice. The class given is in vivo, mouse. The method, then:
Samples for MNA were analyzed employing a fit-for-purpose LC-MS/MS method. PE-Sciex API-4000 triple quadrupole (PerkinElmerSciex Instruments, Boston, MA) mass spectrometer was employed for this analysis. Samples (5 µL) were injected onto Kinetex HILIC (50 × 4.6 mm, 2.6 µm; Phenomenex, Torrance, CA, USA) column connected to Shimadzu VP (Shimadzu, Japan) LC system. The gradient mobile phase mixture of 0.2% formic acid and acetonitrile was delivered at a flow rate of 0.45 ml min-1 into the mass spectrometer electrospray ionization (ESI) chamber. Quantitation was achieved by MS/MS detection in positive ion mode for MNA and internal standard (d4–MNA). Detection of the ions was performed in the multiple reaction monitoring (MRM) mode, monitoring the transition of the m/z 137 precursor ion to the m/z 92 product ion for MNA and m/z 141 precursor ion to the m/z 84 product ion for d4-MNA (internal standard).
A simple protein precipitation extraction method was followed for extraction of N-methylnicotinamide from plasma and various tissue homogenate samples. The tissue samples were homogenized with 1:3 proportions of phosphate buffer saline (PBS) and this homogenate was used for N-Methylnicotinamide determinations. To an aliquot of ~50 μL of plasma/ liver homogenate/ adipose tissue homogenate samples ~300 µl of acetonitrile containing IS (d4-MNA) solution was added, followed by vortex for ~3 minutes and centrifuged for 10 minutes at 14,000 rpm. The supernatant was separated and transferred to pre-labeled HPLC vials and analyzed by LC-MS/MS system.
Male C57BL6/N (Vivo Bio Tech Ltd, India), ob/ob (B6.V-Lepob/OlaHsd) and its lean control (Envigo laboratories Inc, USA) and db/db (BKS.Cg- + Leprdb/ + Leprdb/OlaHsd) and its lean control (Envigo laboratories Inc, USA) were housed in individually ventilated cages (n = 5/cage) under standard laboratory conditions. The study room environment was maintained at a temperature of 21–24 °C and, relative humidity at 40–70%. The animal rooms were maintained under 12 h light and dark cycle. Animals were provided with ad libitum access to water and food (except where noted otherwise, e.g. during fasting prior for glucose tolerance tests, fasting prior to terminal sacrifice). Animals were acclimatized for 1 week before initiation of studies. For Diet induced obesity (DIO) mice study, C57BL6/N mice were maintained on rodents chow diet (Teklad; Harlan) or HFD (60% Kcal; Research diet) for 14 weeks before study initiation and throughout the study period. ob/ob and db/db mice and their lean controls were maintained on rodents chow diet (Teklad; Harlan). All the experiments were approved by Institutional Animal Ethics Committee (IAEC) of Jubilant Biosys Ltd, India.
Lean control + Vehicle and HFD + Vehicle Control groups (G1 and G2) mice were administered with vehicle. Dose formulations of HFD + JBSNF-000088, 50 mg kg^−1, po, bid were administered at dose volume of 5 mL kg^−1 body weight to G3 mice. Similar pattern was followed for ob/ob mice and db/db mice studies. The dose volume for individual animals was calculated based on the most recently recorded body weight during the study period. […] Cage side observations of animals for visible clinical signs, was carried out once daily throughout the study period. Individual animal body weights were recorded twice weekly during the study period.
The ob/ob mice were 12 weeks of age at the start of the study and db/db mice were 8 weeks of age at the start of the study. DIO mice were 20 weeks of age at the start of the study. In each study, non-diabetic lean mice comprised the control group which received vehicle (0.5% w/v HEC and 0.5% v/v Tween 80) and obese or diabetic mice were randomly assigned to two groups based on body weight and unfasted glucose which received either vehicle (0.5% w/v HEC and 0.5% v/v Tween 80) or JBSNF-000088, 50 mg kg^−1, po, bid for 30 days.

Data set [1] concerns the target cGMP-inhibited 3,5-cyclic phosphodiesterase A (PDEA3) (Homo sapiens, UniProt Q14432). In words: Selectivity panel: PDEA3. The following applies: read-out: I% (antagonistic or inhibitory), PDEA3. The class given is biochemical.
The target in data set [2] is adrenergic, alpha-1A-, receptor (ADRA1A) (Homo sapiens, UniProt P35348). In words: Selectivity panel: ADRA1A. Format: cell-based. The method, then: (§1) Supplement 41598_2018_22081_MOESM1_ESM.docx, table 2: Supplementary table 2: Selectivity profile of JBSNF-000088 (at 10 µM) vs a panel of 34 receptors, channels and enzymes. | column: E% (agonistic); I% (antagonistic or inhibitory)

The target in data set [3] is Cannabinoid Receptor 1 (CB1) (Homo sapiens, UniProt P21554). In words: Selectivity panel: CB1. The class given is cell-based. The method, then:
as §1

Another data set deals with Cl- Channel. The data set can be described thus: Selectivity panel: Cl- channel. The following applies: 10 µM. The class given is binding.
For another data set, the target named is Dopamine Receptor 1 (D1) (Homo sapiens, UniProt P21728). In words: Selectivity panel: D1. The class given is cell-based. The method, then:
as §1

A further data set concerns the target Dopamine Transporter (Homo sapiens, UniProt Q01959). In words: Selectivity panel: dopamine transporter. Format: binding. To be noted: read-out: I% (antagonistic or inhibitory), Dopamine Transporter. The method, then: Supplement 41598_2018_22081_MOESM1_ESM.docx, table 2: Supplementary table 2: Selectivity profile of JBSNF-000088 (at 10 µM) vs a panel of 34 receptors, channels and enzymes. | column: I% (antagonistic or inhibitory)

In another data set the target is Niacin receptor (NAR1) (Homo sapiens, UniProt Q8TDS4). In words: Selectivity panel: NAR1. Format: cell-based. The following applies: 10 µM.
For data set [4] the following is noted: C57BL/6, mouse, in vivo, iv.

Chain of Dopamine Receptor 1 (D1) (P21728 whole entry): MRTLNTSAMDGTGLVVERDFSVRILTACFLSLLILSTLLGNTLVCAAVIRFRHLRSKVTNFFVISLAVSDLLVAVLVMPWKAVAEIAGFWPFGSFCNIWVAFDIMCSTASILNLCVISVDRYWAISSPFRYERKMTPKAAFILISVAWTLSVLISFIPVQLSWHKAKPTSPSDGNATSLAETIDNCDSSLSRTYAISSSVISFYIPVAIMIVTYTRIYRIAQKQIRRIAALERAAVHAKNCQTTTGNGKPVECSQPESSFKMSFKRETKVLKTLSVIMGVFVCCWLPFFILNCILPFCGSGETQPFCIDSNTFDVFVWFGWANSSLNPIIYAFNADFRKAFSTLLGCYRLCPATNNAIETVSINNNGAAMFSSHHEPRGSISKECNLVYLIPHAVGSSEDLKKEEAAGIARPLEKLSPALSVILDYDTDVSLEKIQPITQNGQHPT
Chain of adrenergic, alpha-1A-, receptor (ADRA1A) (P35348 whole entry): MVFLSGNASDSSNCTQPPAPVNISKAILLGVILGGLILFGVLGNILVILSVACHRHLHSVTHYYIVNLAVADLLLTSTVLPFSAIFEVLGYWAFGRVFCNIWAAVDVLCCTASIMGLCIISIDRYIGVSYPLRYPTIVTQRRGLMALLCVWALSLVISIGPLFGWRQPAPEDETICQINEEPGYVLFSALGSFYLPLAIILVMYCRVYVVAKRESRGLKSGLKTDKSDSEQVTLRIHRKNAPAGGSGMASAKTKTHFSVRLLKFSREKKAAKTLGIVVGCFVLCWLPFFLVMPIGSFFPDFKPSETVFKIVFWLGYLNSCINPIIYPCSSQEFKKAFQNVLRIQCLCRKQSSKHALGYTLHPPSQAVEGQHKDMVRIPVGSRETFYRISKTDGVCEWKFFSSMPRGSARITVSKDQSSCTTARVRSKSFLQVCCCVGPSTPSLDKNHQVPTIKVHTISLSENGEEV
Chain of Cannabinoid Receptor 1 (CB1) (P21554 whole entry): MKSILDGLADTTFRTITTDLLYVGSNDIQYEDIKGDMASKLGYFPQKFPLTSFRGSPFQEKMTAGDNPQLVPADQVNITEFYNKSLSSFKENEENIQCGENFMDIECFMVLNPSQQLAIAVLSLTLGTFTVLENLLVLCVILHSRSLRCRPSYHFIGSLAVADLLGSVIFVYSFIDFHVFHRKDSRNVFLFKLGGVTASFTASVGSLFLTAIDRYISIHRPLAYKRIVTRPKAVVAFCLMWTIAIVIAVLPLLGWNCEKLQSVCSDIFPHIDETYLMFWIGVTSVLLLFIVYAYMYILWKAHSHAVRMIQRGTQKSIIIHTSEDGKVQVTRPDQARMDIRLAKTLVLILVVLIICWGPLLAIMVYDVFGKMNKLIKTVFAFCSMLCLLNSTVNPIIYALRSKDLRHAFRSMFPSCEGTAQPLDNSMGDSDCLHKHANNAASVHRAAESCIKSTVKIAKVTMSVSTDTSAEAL
Chain of Dopamine Transporter (Q01959 whole entry): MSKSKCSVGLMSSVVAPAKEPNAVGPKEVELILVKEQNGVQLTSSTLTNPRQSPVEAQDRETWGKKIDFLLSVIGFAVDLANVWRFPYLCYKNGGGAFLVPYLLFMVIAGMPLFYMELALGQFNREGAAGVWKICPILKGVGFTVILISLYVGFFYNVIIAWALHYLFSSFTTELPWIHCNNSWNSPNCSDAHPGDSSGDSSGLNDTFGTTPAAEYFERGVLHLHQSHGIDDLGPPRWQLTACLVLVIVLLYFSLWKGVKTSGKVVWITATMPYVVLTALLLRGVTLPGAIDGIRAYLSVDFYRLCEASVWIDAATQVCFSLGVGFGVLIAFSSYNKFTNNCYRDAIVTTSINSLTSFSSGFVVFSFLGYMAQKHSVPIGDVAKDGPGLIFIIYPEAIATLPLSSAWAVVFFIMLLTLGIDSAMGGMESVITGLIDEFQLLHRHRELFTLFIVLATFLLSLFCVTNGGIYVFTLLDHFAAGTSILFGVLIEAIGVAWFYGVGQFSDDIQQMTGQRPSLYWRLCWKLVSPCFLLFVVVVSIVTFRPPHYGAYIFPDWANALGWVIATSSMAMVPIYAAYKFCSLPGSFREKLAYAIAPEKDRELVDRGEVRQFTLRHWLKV
Chain of Niacin receptor (NAR1) (Q8TDS4 whole entry): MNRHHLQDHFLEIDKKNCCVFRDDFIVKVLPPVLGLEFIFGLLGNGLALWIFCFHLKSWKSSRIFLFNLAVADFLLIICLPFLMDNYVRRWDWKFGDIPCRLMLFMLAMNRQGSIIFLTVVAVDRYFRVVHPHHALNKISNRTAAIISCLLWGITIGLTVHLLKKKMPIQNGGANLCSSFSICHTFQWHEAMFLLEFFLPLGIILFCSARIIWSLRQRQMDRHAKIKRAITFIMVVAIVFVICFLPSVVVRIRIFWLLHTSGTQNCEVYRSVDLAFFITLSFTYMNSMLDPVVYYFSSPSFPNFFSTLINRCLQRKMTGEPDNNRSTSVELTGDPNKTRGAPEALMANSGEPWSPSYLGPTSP
Chain of cGMP-inhibited 3,5-cyclic phosphodiesterase A (PDEA3) (Q14432 whole entry): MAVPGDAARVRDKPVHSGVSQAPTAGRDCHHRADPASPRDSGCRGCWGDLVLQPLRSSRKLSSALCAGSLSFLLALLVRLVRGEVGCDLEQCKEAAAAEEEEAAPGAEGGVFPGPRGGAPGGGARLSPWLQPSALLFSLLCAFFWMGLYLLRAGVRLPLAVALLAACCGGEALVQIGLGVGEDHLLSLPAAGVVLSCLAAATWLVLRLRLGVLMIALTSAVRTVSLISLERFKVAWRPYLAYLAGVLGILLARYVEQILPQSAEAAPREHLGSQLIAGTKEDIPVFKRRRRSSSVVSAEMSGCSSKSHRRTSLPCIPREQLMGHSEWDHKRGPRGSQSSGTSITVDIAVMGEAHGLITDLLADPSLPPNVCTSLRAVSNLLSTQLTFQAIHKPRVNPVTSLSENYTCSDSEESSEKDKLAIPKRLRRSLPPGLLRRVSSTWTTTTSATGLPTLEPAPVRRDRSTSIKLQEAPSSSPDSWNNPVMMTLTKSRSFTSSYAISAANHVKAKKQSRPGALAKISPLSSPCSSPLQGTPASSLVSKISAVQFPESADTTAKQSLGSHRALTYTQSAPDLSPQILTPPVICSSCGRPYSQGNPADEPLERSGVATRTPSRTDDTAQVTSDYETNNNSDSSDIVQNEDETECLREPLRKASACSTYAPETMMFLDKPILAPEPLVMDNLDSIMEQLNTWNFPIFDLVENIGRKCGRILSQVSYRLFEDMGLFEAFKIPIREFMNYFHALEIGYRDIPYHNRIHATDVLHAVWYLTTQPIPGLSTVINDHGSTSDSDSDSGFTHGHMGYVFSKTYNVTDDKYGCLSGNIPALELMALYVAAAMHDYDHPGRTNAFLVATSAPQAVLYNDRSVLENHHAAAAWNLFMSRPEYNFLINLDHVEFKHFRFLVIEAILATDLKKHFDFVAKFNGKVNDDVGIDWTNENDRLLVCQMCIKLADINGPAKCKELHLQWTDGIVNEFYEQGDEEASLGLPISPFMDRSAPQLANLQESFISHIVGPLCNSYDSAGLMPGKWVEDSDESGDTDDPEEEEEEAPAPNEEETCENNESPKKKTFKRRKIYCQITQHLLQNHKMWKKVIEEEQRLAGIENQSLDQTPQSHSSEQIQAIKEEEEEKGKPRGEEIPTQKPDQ

For `COc1ccc(C(N)=O)cn1` [JBSNF-000088, 6-methoxynicotinamide], in the data set on ob/ob mice (50 mg/kg b.i.d p.o., 30 days, vs vehicle), the body weight gain entry is listed as “gained comparable weight”. In addition, the “MNA levels in visceral WAT and subcutaneous fat” value with ob/ob mice (30 days, p < 0.0001 vs vehicle control) is recorded as “statistically significant reduction”. The “fed blood glucose or insulin” value in the data set on ob/ob mice (day 21, vs vehicle control) was “no reduction”. Further, in the data set with ob/ob mice (day 28), the glucose tolerance result was “statistically significant improvement”. Also, the “AUC blood glucose (OGTT)” value with ob/ob mice (day 28, p < 0.001 vs vehicle control) is given as “significantly (p < 0.001) lower”. The plasma insulin entry in the data set with ob/ob mice (fed days 7, 14 or 21, fasting day 28, 15 minutes after glucose bolus) was “not accompanied by a reduction in plasma insulin”. Also, in the data set with ob/ob mice (p < 0.001 vs vehicle control), the HOMA-IR index entry was “statistically significant improvement”. Further, the cumulative food intake entry in the data set on ob/ob mice (vs vehicle) is “comparable”. Moreover, the inhibition at 10 µM in data set [1] was -1%; in [2] (read-out: I% (antagonistic or inhibitory), ADRA1A) it was -3%; in [3] (read-out: I% (antagonistic or inhibitory), CB1) it was 1%; at Dopamine Receptor 1 (D1) (read-out: I% (antagonistic or inhibitory), D1), -3%; on Dopamine Transporter, 7%. Further, the “E% (agonistic), ADRA1A” value in data set [2] (10 µM) is recorded as -2%. Moreover, the “E% (agonistic), CB1” value in data set [3] (10 µM) came to 0%. Also, the “I% (antagonistic or inhibitory), Cl- Channel” value with Cl- Channel is 8%. Moreover, the “E% (agonistic), D1” value on Dopamine Receptor 1 (D1) (10 µM) is 0%. Moreover, the “E% (agonistic), NAR1” value on Niacin receptor (NAR1) is reported as -3%. For the same compound, the “plasma clearance as share of hepatic blood flow in mice” value in data set [4] was “approximately 25%”.
